This test has as its target T1, Tie2 receptor (Homo sapiens, UniProt Q02763).
T1 construct: one can use natural cell lines or primary cells which are known to express the receptor of choice; endogenous in cells; host or cells: EA.hy926/B3 cells (HUVEC named as alternative)
Put plainly: Cellular Tie2 autophosphorylation assay (Test (b)). The conditions noted are these: Ang1 ligand stimulated autophosphorylation of cellular Tie2 receptor, e.g. EA.hy926/B3 cells. Type of test: cell-based. An excerpt:
b. Cellular Tie2 Autophosphorylation Assay
This assay is based on measuring the ability of compounds to inhibit autophosphorylation of the Tie2 receptor which normally leads to the production of “activated” receptor that in turn initiates the particular signal transduction pathways associated with the receptor function.
Autophosphorylation can be achieved by a number of means. It is known that expression of recombinant kinase domains in baculoviral systems can lead to the production of phosphorylated and activated receptor. […] In these cases the natural, external cell surface domain of the receptor has been replaced with that of a domain which is known to be readily dimerised via the addition of the appropriate ligand (e.g. TrkA-Tie2/NGF ligand (Marron, M. B., et al., 2000 Journal of Biological Chemistry: 275:39741-39746) or C-fms-Tie-1/CSF-1 ligand (Kontos, C. D., et al., 2002 Molecular and Cellular Biology: 22, 1704-1713). Thus when the chimaeric receptor expressed in a host cell line and the respective ligand is added, this induces autophosphorylation of the chimeric receptor's kinase domain. This approach has the advantage of often allowing a known (and often easily obtained) ligand to be used instead of having to identify and isolate the natural ligand for each receptor of interest. […]

SMILES strings stand for the structures.

T1 sequence (Q02763 23-1124): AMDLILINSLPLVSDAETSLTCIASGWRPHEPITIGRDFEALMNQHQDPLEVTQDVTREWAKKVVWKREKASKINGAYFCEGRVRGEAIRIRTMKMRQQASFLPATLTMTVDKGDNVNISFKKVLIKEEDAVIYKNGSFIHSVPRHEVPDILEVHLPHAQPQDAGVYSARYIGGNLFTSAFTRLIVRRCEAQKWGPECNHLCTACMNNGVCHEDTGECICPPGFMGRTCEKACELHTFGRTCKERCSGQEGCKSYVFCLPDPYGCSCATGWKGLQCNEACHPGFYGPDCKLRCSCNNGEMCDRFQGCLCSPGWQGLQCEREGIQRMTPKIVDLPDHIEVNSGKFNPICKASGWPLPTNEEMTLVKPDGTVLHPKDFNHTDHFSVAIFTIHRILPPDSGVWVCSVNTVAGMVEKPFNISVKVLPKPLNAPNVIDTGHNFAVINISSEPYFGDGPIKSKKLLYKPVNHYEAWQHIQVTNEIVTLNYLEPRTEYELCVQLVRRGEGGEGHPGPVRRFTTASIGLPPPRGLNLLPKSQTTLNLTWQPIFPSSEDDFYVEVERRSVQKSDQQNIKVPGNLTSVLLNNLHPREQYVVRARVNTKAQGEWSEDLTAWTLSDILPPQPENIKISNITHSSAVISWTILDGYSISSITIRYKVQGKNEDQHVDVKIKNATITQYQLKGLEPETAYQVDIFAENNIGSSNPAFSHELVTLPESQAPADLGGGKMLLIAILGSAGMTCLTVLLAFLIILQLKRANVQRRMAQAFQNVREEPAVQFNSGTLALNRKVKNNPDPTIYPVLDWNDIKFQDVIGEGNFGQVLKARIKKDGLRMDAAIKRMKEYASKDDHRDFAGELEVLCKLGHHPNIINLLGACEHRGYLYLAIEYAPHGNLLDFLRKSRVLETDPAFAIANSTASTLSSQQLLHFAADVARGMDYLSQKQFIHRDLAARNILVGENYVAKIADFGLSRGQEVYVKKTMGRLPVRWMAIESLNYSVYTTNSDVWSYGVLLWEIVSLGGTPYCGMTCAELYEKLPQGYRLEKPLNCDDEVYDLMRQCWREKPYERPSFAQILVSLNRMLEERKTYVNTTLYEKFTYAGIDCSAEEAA

What is called IC50 is the midpoint of a concentration-inhibition curve. In turn, `Cn1cnc(-c2ccccc2)c1-c1nc2c(N)ncnc2s1` [Example 2, 2-(1-Methyl-4-phenyl-1H-imidazol-5-yl)[1,3]thiazolo[5,4-d]pyrimidin-7-amine] gave an IC50 of 2700 nM. This counts as single-digit micromolar. With `CSc1ncnc2sc(-c3c(-c4ccccc4)ncn3C)cc12` [Example 7, 6-(1-Methyl-4-phenyl-1H-imidazol-5-yl)-4-(methylthio)thieno[2,3d]pyrimidine] the figure was 2200 nM.

The record behind these values is patent publication US7427616B2, “Condensed pyridines and pyrimidines with tie2 (TEK) activity” (AstraZeneca AB, priority 2002, dated 2008).
